Assay results from paper PMC7689490, “Designed CXCR4 mimic acts as a soluble chemokine receptor that blocks atherogenic inflammation by agonist-specific targeting” (Nature Communications, 2020).
Values joined by “and” are separate entries in the source; they are usually repeats but may differ in a detail not shown here. Equal values may be shown once.

Experiments:
MonoMac-6 / HAoEC = assay: MIF-induced MonoMac-6 adhesion to HAoECs under flow; assay type: cell-based, human
Procedure: HAoECs were seeded at a density of 60,000 cells per channel in collagen-coated Ibidi µ-Slides I 0.8 and incubated for 20–24 h until monolayers were confluent. […] Prior to the flow assay, MgSO4 and CaCl2 were added to MonoMac6 suspensions at a final concentration of 1 mM. Flow channels containing HAoEC monolayers were then perfused with MonoMac6 cells at a shear rate of 1.5 dyn cm^−2 for 10 min at 37 °C using the Ibidi Pump System/Perfusion Set. For quantification of adherent monocytes, images from four positions per channel were acquired using a Leica DMi8 inverted microscope (20 x objective) and quantified with ImageJ.

[1] = test system: human monocyte-derived macrophages; assay: LDLR and CXCR4 cell surface levels in macrophages (flow cytometry, Reviewer-only Figure 4); assay type: cell-based
Procedure: crosstalk, or might even imply that CXCR4 and LDLR colocalize/complex and are subjected to a joint internalization event.
We feel that these studies warrant further in-depth (and mechanistic) exploration, which are […]
in the manuscript. We have therefore prepared them as Reviewer-only Figure 4 below.
Supplementary part of the manuscript, we are happy to do so. […]
expression and endocytosis in human monocyte-derived macrophages. LDLR and CXCR4 cell surface levels were measured by flow cytometry. Experiments were performed in the presence of LDL and the […]
containing 100µg/mL penicillin, 100 µg/mL streptomycin, and 0.2% BSA) for 15 min at 37°C and subsequently exposed to LDL (25 µg/mL) for 15 min. After washing with PBS, cells were collected and incubated with anti-hLDLR-APC (1:100, R&D Systems, FAB2148A) and anti-CXCR4-PE (1:100, R&D Systems, FAB170P) at 4°C for 1 h. MIF stimulation enhances LDL-triggered internalization of LDLR and […]
The data shown are from one of two experiments
MIF dependent adhesion can be blocked, it is unclear whether MIF dependent adhesion to TNF-activated (since this stimulus seems relevant in in vivo settings) endothelial cells can be […]
Response: Thank you for this important point. […]
experiment and now include static adhesion data using TNF-primed endothelial cells in the […]

CC[C@H](C)[C@H](NC(=O)[C@H](Cc1ccc(O)cc1)NC(=O)[C@H](CCCNC(=N)N)NC(=O)[C@H](CC(=O)O)NC(=O)CCCCCCCCCCCNC(=O)CCCCCNC(=O)[C@H](CCCCN)NC(=O)[C@H](CS)NC(=O)[C@H](CC(C)C)NC(=O)[C@H](Cc1ccccc1)NC(=O)[C@H](CC(N)=O)NC(=O)CNC(=O)[C@H](Cc1ccccc1)NC(=O)[C@H](Cc1ccc(O)cc1)NC(=O)[C@H](Cc1c[nH]c2ccccc12)NC(=O)[C@H](CC(N)=O)NC(=O)[C@H](C)NC(=O)[C@@H](NC(=O)[C@H](C)NC(=O)[C@@H](N)CC(=O)O)C(C)C)C(=O)N[C@@H](CS)C(=O)N[C@@H](CC(=O)O)C(=O)N[C@@H](CCCNC(=N)N)C(=O)N[C@@H](Cc1ccccc1)C(=O)N[C@@H](Cc1ccc(O)cc1)C(=O)N1CCC[C@H]1C(=O)N[C@@H](CC(N)=O)C(=O)N[C@@H](CC(=O)O)C(=O)N[C@@H](CC(C)C)C(=O)N[C@@H](Cc1c[nH]c2ccccc12)C(=O)N[C@H](C(N)=O)C(C)C [msR4M-L1, CXCR4-ECL1[97–110]-6-Ahx-12-Ado-ECL2[182–196]]
effect on MIF-induced monocyte adhesion under flow (MonoMac-6 / HAoEC; 1.5 dyn/cm^2, 16 nM MIF, 320 nM msR4M-L1): inhibited monocyte adhesion
Fig. 5c, MIF-induced monocyte adhesion (MonoMac-6 / HAoEC; MIF + msR4M-L1, individual replicates, n = 4): 206 and 207 and 188 and 291
Fig. 5b, MIF-induced monocyte adhesion (MonoMac-6 / HAoEC; TNF + MIF + msR4M-L1, individual replicates, n = 3): 105.71 and 99.43 and 83.71
LDLR cell surface level (Q3), MIF + msR4M-L1 ([1]; 80 nM MIF, 400 nM msR4M-L1, LDL 25 µg/mL, without MIF 15.1%, MIF alone 8.99%, one of two experiments): 12.6%
CXCR4 cell surface level (Q3), MIF + msR4M-L1 ([1]; as E143, without MIF 39%, MIF alone […]): 48.7%
